Data taken from patent US20050090398A1, “Novel tetrazole derivative useful as herbicides” (priority 2002, published 2005).

Columns and labels:
Setaria viridis = assay: Test of post-emergence foliage treatment against field weeds; type: in vivo; settings: post-emergence foliage treatment at 2-leaf stage, 2.0 kg/ha effective component, examined 3 weeks after treatment
Procedure: (§1) Preparation of formulation of the active compound • Carrier: Acetone 5 parts by weight • Emulsifier: Benzyloxy polyglycol ether 1 part by weight
(§2) A formulation of an active substance is obtained as an emulsifiable concentrate by mixing 1 part by weight of the active compound with the above-mentioned amount of the carrier and emulsifier. A prescribed amount of the formulation is diluted with water.
(§3) In a green house, seeds of Echinochloa crusgalli, Setaria viridis, Amaranthus retro-flexus and Polygonum were sown in a 120 cm^2 pot filled with field soil and covered with soil. 10 days after the sowing and soil covering (weeds were 2-leaf stage in average) a diluted solution of the prescribed chemical amount prepared in the same manner as in the above-mentioned Test Example 1 was spread uniformly on the foliage of the test plants in each test pot. The herbicidal effect was examined 3 weeks after the treatment.

Amaranthus retroflexus = assay: as above; type: in vivo; settings: post-emergence foliage treatment at 2-leaf stage, 2.0 kg/ha effective component, examined 3 weeks after treatment
Procedure: as §1, §2, §3

Polygonum = assay: as above; type: in vivo; settings: post-emergence foliage treatment at 2-leaf stage, 2.0 kg/ha effective component, examined 3 weeks after treatment
Procedure: as §1, §2, §3

Echinochloa crusgalli = assay: as above; type: in vivo; settings: post-emergence foliage treatment at 2-leaf stage, 2.0 kg/ha effective component, examined 3 weeks after treatment
Procedure: as §1, §2, §3

paddy field weeds = assay: Test for herbicidal effect against paddy field weeds; type: in vivo; settings: 0.25 kg/ha active component, applied to water surface 5 days after rice transplantation, examined after 3 weeks
Procedure: as §1, §2
(§4) In a green house 3 seedlings of paddy rice (variety: Nihonbare) of 2.5 leaf stage (15 cm tall) were transplanted in a 500 cm^2 pot filled with paddy field soil. Then seeds or tubers of Echinochloa crusgalli, Cyperus difformis L., Scirpus juncoides Roxburgh, Monochoria vaginalis Presl, broad-leaved weeds (Lindernia Procumbens Philcox, Rotala indica Koehne, Elatine triandra Schk, Ammannia multiflora Roxb., Dopatrium junceum Hammilt etc.), Cyperus serotinus Rottboel and Sagittaria pygmaea Miq were inoculated and water was poured to a depth of about 2-3 cm. 5 days after the rice transplantation a prescribed, diluted solution of each formulation of active compound prepared according to the aforementioned preparation method was applied to the surface of water. After the treatment the water depth of 3 cm was maintained and the herbicidal effect was examined after 3 weeks from the treatment. The herbicidal effect was rated 100% in the case of complete death and as 0% in the case of no herbicidal effect.

transplanted paddy rice = assay: Paddy field test: safety to transplanted paddy rice; type: in vivo, paddy rice (variety: Nihonbare); settings: 0.25 kg/ha active component, applied to water surface 5 days after rice transplantation, examined after 3 weeks
Procedure: as §1, §2, §4

Row | Structure (SMILES) | herbicidal activity against Setaria viridis (Setaria viridis) [%] | herbicidal activity against Amaranthus retroflexus (Amaranthus retroflexus) [%] | herbicidal activity against Polygonum (Polygonum) [%] | herbicidal activity against Echinochloa crusgalli (Echinochloa crusgalli) [%] | herbicidal effect against paddy field weeds (paddy field weeds) | safety to the transplanted paddy rice (transplanted paddy rice)
1 | Cc1nnnn1CCOc1c(Cl)ccc(C(=O)C2C(=O)CCCC2=O)c1Cl [compound 275] | 90 | 90 | 90 | 90 | – | –
2 | Cc1nnnn1Cc1c(S(C)(=O)=O)ccc(C(=O)C2C(=O)CCCC2=O)c1Cl [compound 558] | – | – | – | – | sufficient herbicidal effect | safety to the transplanted paddy rice
3 | O=C(c1ccc(Cl)c(OCCn2ncnn2)c1Cl)C1C(=O)C2CCC(C2)C1=O (stereo not drawn) [compound 2022] | 90 | 90 | 90 | 90 | – | –
4 | O=C1CCCC(Cl)=C1C(=O)c1ccc(Cl)c(OCCn2cnnn2)c1Cl [compound 258] | 90 | 90 | 90 | 90 | – | –
5 | O=C1CCCC(=O)C1C(=O)c1ccc(Cl)c(OCCn2ncnn2)c1Cl [compound 2017] | 90 | 90 | 90 | 90 | – | –
6 | CCn1ncc(C(=O)c2ccc(Cl)c(OCCn3cnnn3)c2Cl)c1O [compound 272] | 90 | 90 | 90 | 90 | – | –
7 | CSc1nnnn1Cc1c(S(C)(=O)=O)ccc(C(=O)C2C(=O)CCCC2=O)c1Cl [compound 650] | 90 | 90 | 90 | 90 | – | –
8 | CS(=O)(=O)c1ccc(C(=O)C2C(=O)CCCC2=O)c(Cl)c1Cn1ncnn1 [compound 2301] | 90 | 90 | 90 | 90 | – | –
9 | Cc1nnn(CCOc2c(Cl)ccc(C(=O)C3C(=O)CC(C)(C)CC3=O)c2Cl)n1 [compound 2081] | 90 | 90 | 90 | 90 | – | –
10 | CS(=O)(=O)c1ccc(C(=O)C2=C(Cl)CCCC2=O)c(Cl)c1Cn1ncnn1 [compound 2347] | 90 | 90 | 90 | 90 | – | –
11 | Cc1nnn(CCOc2c(Cl)ccc(C(=O)C3C(=O)CCCC3=O)c2Cl)n1 [compound 2080] | 90 | 90 | 90 | 90 | – | –
12 | O=C1CCCC(Cl)=C1C(=O)c1ccc(Cl)c(OCCn2ncnn2)c1Cl [compound 2063] | 90 | 90 | 90 | 90 | – | –
13 | O=C1CCCC(Sc2ccccc2)=C1C(=O)c1ccc(Cl)c(OCCn2ncnn2)c1Cl [compound 2024] | – | – | – | – | sufficient herbicidal effect | safety to the transplanted paddy rice
14 | CCn1ncc(C(=O)c2ccc(Cl)c(OCCn3ncnn3)c2Cl)c1O [compound 2077] | 90 | 90 | 90 | 90 | – | –
15 | CCn1ncc(C(=O)c2ccc(Br)c(OCCn3cnnn3)c2C)c1O [compound 1593] | 90 | 90 | 90 | 90 | – | –
16 | Cc1ccc(SC2=C(C(=O)c3ccc(S(C)(=O)=O)c(Cn4ncnn4)c3Cl)C(=O)CCC2)cc1 [compound 2329] | – | – | – | – | sufficient herbicidal effect | safety to the transplanted paddy rice
17 | O=C(c1ccc(Br)c(OCCn2cnnn2)c1Br)C1C(=O)C2CCC(C2)C1=O (stereo not drawn) [compound 1239] | 90 | 90 | 90 | 90 | – | –
18 | O=C1CCCC(=O)C1C(=O)c1ccc(Cl)c(OCCn2cnnn2)c1Cl [compound 212] | 90 | 90 | 90 | 90 | – | –
19 | CS(=O)(=O)c1ccc(C(=O)C2C(=O)CCCC2=O)c(Cl)c1OCCn1ncnn1 [compound 2521] | 90 | 90 | 90 | 90 | – | –
20 | CC1CC(=O)C(C(=O)c2ccc(Cl)c(OCCn3cnnn3)c2Cl)C(=O)C1 (stereo not drawn) [compound 215] | 90 | 90 | 90 | 90 | – | –
21 | CS(=O)(=O)c1ccc(C(=O)C2C(=O)CCCC2=O)c(Cl)c1OCCn1cnnn1 [compound 715] | 90 | 90 | 90 | 90 | – | –
22 | CCn1ncc(C(=O)c2ccc([N+](=O)[O-])c(OCCn3cnnn3)c2C)c1O [compound 1693] | 90 | 90 | 90 | 90 | – | –
23 | CC1(C)CC(=O)C(C(=O)c2ccc(Cl)c(OCCn3cnnn3)c2Cl)C(=O)C1 [compound 213] | 90 | 90 | 90 | 90 | – | –
24 | O=C(c1ccc(Br)c(OCCn2ncnn2)c1Br)C1C(=O)C2CCC(C2)C1=O (stereo not drawn) [compound 3043] | 90 | 90 | 90 | 90 | – | –
25 | O=C1CCCC(=O)C1C(=O)c1ccc(Br)c(OCCn2cnnn2)c1Br [compound 1234] | 90 | 90 | 90 | 90 | – | –
26 | O=C1CCCC(=O)C1C(=O)c1ccc(Br)c(OCCn2ncnn2)c1Br [compound 3038] | 90 | 90 | 90 | 90 | – | –
27 | CS(=O)(=O)c1ccc(C(=O)C2C(=O)CCCC2=O)c(Cl)c1Cn1cnnn1 [compound 495] | 90 | 90 | 90 | 90 | – | –
